Test results as given in US4046904A, “Novel penicillin, and its preparation and use” (Sumitomo Chemical Company, Limited, priority 1975, dated 1977).
Where two headings read alike, the source gives them in different places.

How the values were obtained:
[1] = tested on: Escherichia coli; test: Intraperitoneal infection in mice, median protective dose (Table 2); format: in vivo; settings: sc, subcutaneous, 1 and 4 hours after infection, sodium salt, read-out: PD50
Method: (§1) Note: Compound (I), Compound (A) and Compound (B) were subjected to the test in the form of the sodium salt. For each test, eight male ICR-SLC strain mice were used at each dose level. MIC was determined by the nutrient broth dilution method. In determination of PD50, subcutaneous treatment was carried out twice, i.e. 1 and 4 hours after infection.

[2] = tested on: Klebsiella pneumoniae; test: as above; format: in vivo; settings: subcutaneous; for ED50: sc, 1 and 4 hours after infection, sodium salt, read-out: PD50
Method: as §1

[3] = tested on: Pseudomonas aeruginosa; test: as above; format: in vivo; settings: subcutaneous; for ED50: sc, 1 and 4 hours after infection, sodium salt, read-out: PD50
Method: as §1

[4] = tested on: Escherichia coli; test: MIC (Table 3); format: cell-based
From the text: (§2) The minimum inhibitory concentrations obtained with Compound (I) and Compound (C) against the following organisms representing 6 genera are shown in Table 3.
(§3) Note: Compound (I) and Compound (C) were subjected to the test in the form of the sodium salt.

[5] = tested on: Staphylococcus aureus; test: MIC (Table 3); format: cell-based
From the text: as §2, §3

[6] = tested on: Klebsiella pneumoniae; test: Intraperitoneal infection in mice, median protective dose (Table 5); format: in vivo
Method: (§4) The relative activities of Compound (I) and Compound (C) against various intraperitioneal infections in mice evaluated by the minimum inhibitory concentrations and the means median protective doses (subcutaneously administered) are shown in Table 5.
(§5) Note: Compound (I) and Compound (C) were subjected to the test in the form of the sodium salt. For each test, five male ICR-SLC strain mice were used at each dose level. MIC was determined by the nutrient broth dilution method. In determination of PD50, subsutaneous treatment was carried out three times, i.e. 1, 3 and 5 hours after infection.

[7] = tested on: Pseudomonas aeruginosa; test: as above; format: in vivo
Method: as §4, §5

[8] = tested on: Staphylococcus aureus; test: as above; format: in vivo
Method: as §4, §5

[9] = tested on: Streptococcus faecalis; test: as above; format: in vivo
Method: as §4, §5

CC1(C)S[C@@H]2[C@H](NC(=O)[C@H](NC(=O)c3ccnnc3O)c3ccc(O)cc3)C(=O)N2[C@H]1C(=O)O [Compound (I), 6-[D-2-(3-hydroxypyridazine-4-carbonamido)-2-(p-hydroxyphenyl)acetamido]penicillanic acid]
ED50 ([1]; E. coli strain NIHJ, male ICR-SLC mice): 3.2 mg/kg
ED50 ([1]; E. coli strain No. 37, male ICR-SLC mice): 31 mg/kg
PD50 relative to Compound (A) and Compound (B) ([2]; mice): markedly superior
ED50 ([2]; K. pneumoniae strain No. 1, male ICR-SLC mice): 25 mg/kg
ED50 ([2]; K. pneumoniae strain No. 6, male ICR-SLC mice): 36 mg/kg
ED50 ([2]; K. pneumoniae strain No. 20, male ICR-SLC mice): 31 mg/kg
PD50 relative to Compound (A) and Compound (B) ([3]; mice): markedly superior
ED50 ([3]; P. aeruginosa strain NC-5, male ICR-SLC mice): 22 mg/kg
ED50 ([3]; P. aeruginosa strain T, male ICR-SLC mice): 35 mg/kg
antibacterial activity relative to Compound (C) ([4]; Escherichia coli): inferior
MIC ([4]; Escherichia coli strain NIHJ, sodium salt): 6.25 µg/mL
antibacterial activity relative to Compound (C) ([5]; Staphylococcus aureus): superior
MIC ([5]; Staphylococcus aureus strain 209P, sodium salt): 0.39 µg/mL
PD50 relative to Compound (C) ([6]; mice, subcutaneous): approximately equal
ED50 ([6]; sc, K. pneumoniae strain No. 1, male ICR-SLC mice, subcutaneous, 1, 3 and 5 hours after infection, sodium salt, read-out: PD50): 16 mg/kg
PD50 relative to Compound (C) ([7]; mice, subcutaneous): inferior
ED50 ([7]; sc, P. aeruginosa strain TS, male ICR-SLC mice, subcutaneous, 1, 3 and 5 hours after infection, sodium salt, read-out: PD50): 22 mg/kg
PD50 relative to Compound (C) ([8]; mice, subcutaneous): markedly superior
ED50 ([8]; sc, S. aureus strain A24, male ICR-SLC mice, subcutaneous, 1, 3 and 5 hours after infection, sodium salt, read-out: PD50): 2 mg/kg
ED50 ([9]; Enterococcus faecalis, sc, S. faecalis strain F10, male ICR-SLC mice, subcutaneous, 1, 3 and 5 hours after infection, sodium salt, read-out: PD50): 1.1 mg/kg
PD50 relative to Compound (C) ([9]; Streptococcus faecalis, mice, subcutaneous): markedly superior
